In patent publication US8134010B2, “Thiazole-based nitric oxide donors having aryl substituent(s) and uses thereof” (priority 2004, dated 2012):
Entries after “also recorded” stand apart in the source; their conditions may differ.

Legend:
[1] = tested on: c-GMP in slices of thoracic aorta of rats; assay: Cyclic-GMP measurement in aortic rat tissue (radioimmunoassay); format: cell-based; conditions: for accumulation of cyclic-GMP as compared with GTN: isolated rat aorta, radioimmunoassay; for cGMP Post-infusion: post-infusion (repeated treatment)
Procedure: GTN (10^−6 M) was added to the chamber and, 1 minute after exposure to the drug, rings (usually 3-5) were taken, wrapped with aluminum foil and immediately frozen in liquid nitrogen for storage. Control sample group was treated with the vehicle solution only. At the time of analysis, rings were thawed, blotted over a dry gauzed and weighted. A known weight of tissue was homogenized in 2 ml ice-cold modified Hank's balanced salt solution containing (in gram/liter) NaCl 8; KCl 0.4; glucose 1; KH2PO4 0.06; Na2HPO4 0.047; Phenol red 0.017 and further containing 25 mM EDTA (disodium salt). The homogenate was centrifuged at 4000 g (force units) for 10 minutes at 2-4° C. and the supernatant was thereafter transferred into fresh pre-cooled test tube containing 1 ml of acetonitrile. The tubes were vortex mixed for a few seconds and subsequently centrifuged at 4000 g for 5 minutes at 2-4° C., to remove the precipitated protein. Each supernatant was transferred into a clean test tube and evaporated to dryness under a stream of nitrogen at 55° C. The dry residue was reconstituted with 10 volumes of Tris-EDTA buffer pH 7.5 (0.05 M Tris containing 4 mM EDTA). Aliquots of 100 μl of the reconstituted solution in duplicate were used for c-GMP measurements using Amersham RIA kit, as is described in Haj-Yehia & Benet [Pharmacology, 1995, 273, 1, pp. 94-100]. Standard curves were plotted with six concentrations (0, 0.5, 1, 2, 4 and 8 pmoles of c-GMP per tube).
The NO-tolerance effect of GTN and NO-donor compounds according to the present invention was measured by following the production of c-GMP in slices of thoracic aorta of rats. Thus, the production of c-GMP was measured as described in the methods section above for the reference NO-donor compound GTN, and for the NO-donors of the present invention Pet-2, Pet-3, Pet-7, Pet-8, Pet-10, Pet-12, Pet-24, Pet-59, Pet-106, Pet-107, Pet-120, Pet-147, Pet-149, Pet-152, Pet-154 and Pet-155.

isolated rat aorta [2] = assay: In vitro induction of tolerance to NO releasing compounds (vasorelaxation of pre-exposed aortic rings); format: cell-based; conditions: rings pre-treated with epinephrine and then with 0.44 mM of the same compound
Procedure: Aortic rings were prepared as described hereinabove, and were exposed to 0.44 mM GTN (vehicle was water:ethanol:propyleneglycol at proportional ratio of 1:1:1) for 1 hour before CCRC construction, to thereby induce tolerance to nitroglycerine. At the end of the tolerance induction period, rings were thrice washed with the path buffer (Krebs-bicrbonate) every 15 minutes for the following hour and then CCRC for vasorelaxation on GTN-induced tolerance rings were constructed for GTN (pretreated versus untreated rings, FIG. 15), in order to verify the ability to induce and measure GTN tolerance induction in vitro
Attempted induction of tolerance to the NO-donating compounds of the present invention was performed under the same conditions as for GTN. Thus, in an exemplary experiment, rings were exposed to 0.44 mM solution of Pet-3 in the attempt to induce tolerance for Pet-3. CCRC were then measured for the vasorelaxing effect of Pet-3 on a group of rings which were pre-exposed to Pet-3 as to induce tolerance to Pet-3, and for an untreated control group. The above protocol was repeated with Pet-2, Pet-7, Pet-8, Pet-12, Pet-24, Pet-43, Pet-149 and Pet-152.

[3] = tested on: hypertensive Sprague-Dawley male rats; assay: Hypotensive effects: mean arterial pressure during intravenous bolus doses; format: in vivo, rat; conditions: for activity as hypotensive agents (MAP): rats given phenylephrine
Procedure: Mean arterial pressure (MAP) was monitored and determined during bolus infusion of Pet-2, Pet-3, Pet-7, Pet-8, Pet-12 and Pet-13. Briefly, polyethylene catheters (PE50) were inserted into the carotid artery and into the jugular vein of anesthetized hypertensive Sprague-Dawley male rats (200-300 grams). A blood pressure recorder was placed within the carotid artery. Phenylephrine (0.1 mg) was then injected and the mean arterial blood pressure (MABP) was monitored continuously until a stable baseline was reached. The hypotensive effects of intravenous (iv) bolus doses (0.1 mg of each tested compound) administered intravenously at the jugular vein in minimal volume of vehicle (0.2 ml per dose) were evaluated. Five minutes were allowed between each dose, during which the maximal decrease in MAP was recorded and a dose-response graph comparing the hypotensive effect of the compounds was constructed.

[4] = tested on: cyclic-GMP in isolated aorta of rats; assay: Induction of in vivo nitrate tolerance (cGMP in isolated aorta of rats pre-treated in vivo); design: species or system rat; conditions: rats pre-treated in vivo with the same compound
Procedure: For c-GMP levels and tolerance development, the rat's thoracic aorta was isolated after exposure to the tested compound in vivo, and measured as described above in the in vitro assays.
Male Sprague Dawley rats (220 to 250 grams) were housed under constant temperature and humidity conditions. Light was maintained at a 12/12 light dark cycle. Except for 12 hours before the experiment, when food fasting was initiated, all rats had free access to standard rat pellet diet and tap water. The animals were anesthetized by intraperitoneal injection of ketamine and xylazine combination (50 and 10 milligram per kilogram, respectively). […] The catheters were filled with normal saline solution containing 1000 IU/ml of heparin and plugged with a metal pin. Catheters were externalized to the back of the neck region and secured by a polyester felt disk.
After implantation, the rats were individually housed until they regained their preoperative weight and appeared healthy (3 to 4 days post-operation). At this time point (day 0), an osmotic mini-pump (Alza Corp., Palo Alto, Calif.) delivering constant volume (10 μl/hour) of vehicle or drug was connected to one of the intravenous catheters.
For inducing tolerance to the tested NO-donor according to the present invention, the animals received 200 μg/hour of the tested compound for 16 hours (short-term-induced tolerance). A similar number of animals were processed by the same surgical procedure and received the vehicle alone (10 μl/hour of a solution consisting of 30% ethanol and 30% propylene glycol in sterile distilled water for injection).
At the end of the infusion periods used for the development of tolerance (16 hour), the rats were anesthetized as described above, the two catheters were externalized and the delivering catheters were disconnected from the mini-pump. The abdomen was opened by midline incision and the thoracic aorta were isolated, washed and cleaned from the surrounding tissues. […]

isolated rat aorta [5] = assay: Cross-tolerance studies on aortic rings (GTN / Pet-12 pre-treatment); format: cell-based
Procedure: Cross-tolerance studies were conducted using the same technique described above for measuring vasorelaxation of aortic rings from rats. Two groups of aortic rings samples were pre-treated with GTN, then one group was measured for vasorelaxation by GTN and the second group for vasorelaxation by Pet-12, an exemplary NO-donor according to the present invention. For the opposite cross-tolerance studies, two groups of aortic rings samples were pre-treated with Pet-12, then one group was measured for vasorelaxation by GTN and the second group for vasorelaxation by Pet-12.

SMILES | accumulation of cyclic-GMP as compared with GTN [1] | tolerance induction in vitro (vasorelaxation, pre-treated versus control rings) (isolated rat aorta [2]) | other results
Cc1nc(NC(=O)[C@@H](C)c2ccc(CC(C)C)cc2)sc1CCO[N+](=O)[O-] (stereo in doubt) [Pet-152, 2-(4-Isobutyl-phenyl)-N-[4-methyl-5-(2-nitrooxy-ethyl)-thiazol-2-yl]-propionamide] | increased levels of cGMP | – | –
Cc1nc(NC(=O)c2cccnc2)sc1CCO[N+](=O)[O-] [Pet-154, N-[4-methyl-5-(2-nitrooxy-ethyl)-thiazol-2-yl]-nicotinamide] | increased levels of cGMP | – | –
CC(=O)Nc1ccc(-c2nc(C)c(CCO[N+](=O)[O-])s2)cc1 [Pet-107, N-{4-[4-Methyl-5-(2-nitrooxy-ethyl)-thiazol-2-yl]-phenyl}-acetamide] | increased levels of cGMP | absence of tolerance induction | cGMP Post-infusion ([1]; rat thoracic aorta): 125 ± 10 pmol/g tissue
CNc1cncc(-c2nc(C)c(CCO[N+](=O)[O-])s2)n1 [Pet-24, Methyl-{6-[4-methyl-5-(2-nitrooxy-ethyl)-thiazol-2-yl]-pyrazin-2-yl}-amine] | increased levels of cGMP | absence of tolerance induction | –
Cc1nc(-c2ccccc2)sc1CCO[N+](=O)[O-] [Pet-8, 4-Methyl-5-(2-nitrooxy-ethyl)-2-phenyl-thiazole] | increased levels of cGMP | – | activity as hypotensive agents (MAP) [3]: high activity
Cc1nc(N)sc1CCO[N+](=O)[O-] [Pet-10, 4-methyl-5-(2-nitrooxy-ethyl)-thiazole-2-ylamine] | increased levels of cGMP | – | –
Cc1nc(-c2ccc(N)cc2)sc1CCO[N+](=O)[O-] [Pet-106, 4-[4-Methyl-5-(2-nitrooxy-ethyl)-thiazol-2-yl]-phenylamine] | increased levels of cGMP | absence of tolerance induction | cGMP Post-infusion ([1]; rat thoracic aorta): 120 ± 12 pmol/g tissue
Cc1nc(CCCCc2nc(C)c(CCO[N+](=O)[O-])s2)sc1CCO[N+](=O)[O-] [Pet-13] | – | – | activity as hypotensive agents (MAP) [3]: high activity
Cc1nc(-c2ccc(C(F)(F)F)cc2)sc1CCO[N+](=O)[O-] [Pet-59, 4-Methyl-5-(2-nitrooxy-ethyl)-2-(4-trifluoromethyl-phenyl)-thiazole] | increased levels of cGMP | – | –
O=[N+]([O-])OCC(CO[N+](=O)[O-])O[N+](=O)[O-] [GTN, glyceryl trinitrate, reference compound] | – | tolerance inducement caused by treatment with GTN; also recorded: causing the emergence of tolerance; also recorded: tolerance induced by treatment with GTN | c-GMP level following a repeated treatment ([1]; rat thoracic aorta): significantly reduced; tolerance induction by cyclic-GMP accumulation in aorta of rats pre-treated in vivo [4]: tolerance inducing effect; also recorded: decreased; hypotensive effect on MAP following successive administrations ([3]; successive doses): attenuation in its effect on MAP
Cc1nc(Nc2nc(C)c(CCO[N+](=O)[O-])s2)sc1CCO[N+](=O)[O-] [Pet-43, Bis-[4-methyl-5-(2-nitrooxy-ethyl)-thiazol-2-yl]-amine] | – | absence of tolerance induction | –
CCNc1nc(C)c(CCO[N+](=O)[O-])s1 [Pet-147, Ethyl-[4-methyl-5-(2-nitrooxy-ethyl)-thiazol-2-yl]-amine] | increased levels of cGMP | – | –
Cc1nc(Nc2cccc3ccccc23)sc1CCO[N+](=O)[O-] [Pet-149, [4-Methyl-5-(2-nitrooxy-ethyl)-thiazol-2-yl]-naphthalen-1-yl-amine] | increased levels of cGMP | absence of tolerance induction | –
Cc1nc(-c2cccnc2)sc1CCO[N+](=O)[O-] [Pet-12, 3-[4-Methyl-5-(2-nitrooxy-ethyl)-thiazole-2-yl]-pyridine] | – | absence of tolerance induction | vasorelaxation in rings made tolerant to GTN (cross-tolerance) (isolated rat aorta [5]; aorta pre-treated with GTN): has no effect on the vasorelaxation capacity of Pet-12; also recorded: absence of tolerance induction effect; tolerance induction in rings pre-treated with Pet-12 (cross-tolerance) (isolated rat aorta [5]; aorta pre-treated with Pet-12, vasorelaxation by Pet-12 and GTN): does not evoke tolerance to itself not to GTN; also recorded: absence of tolerance induction effect; tolerance induction by cyclic-GMP accumulation in aorta of rats pre-treated in vivo [4]: lack of tolerance induction; also recorded: absence of tolerance induction; activity as hypotensive agents (MAP) [3]: high activity
C=CCNc1nc(C)c(CCO[N+](=O)[O-])s1 [Pet-155, allyl-[4-methyl-5-(2-nitrooxy-ethyl)-thiazol-2-yl]-amine] | increased levels of cGMP | – | –
Cc1nc(C)c(CCO[N+](=O)[O-])s1 [Pet-3, 2,4-Dimethyl-5-(2-nitrooxy-ethyl)-thiazole] | increased levels of cGMP | absence of tolerance induction | activity as hypotensive agents (MAP) [3]: high activity
Cc1nc(N(C)C)sc1CCO[N+](=O)[O-] [Pet-7, Dimethyl-[4-methyl-5-(2-nitrooxy-ethyl)-thiazol-2-yl]-amine] | increased levels of cGMP | absence of tolerance induction | activity as hypotensive agents (MAP) [3]: high activity
